Source: paper PMC3335078, “Length and Amino Acid Sequence of Peptides Substituted for the 5-HT3A Receptor M3M4 Loop May Affect Channel Expression and Desensitization” (PLoS ONE, 2012)

Key:
[1] = molecular target: T1, 5-HT3A-A1 (M3M4 loop replaced by one alanine) (Mus musculus, UniProt P23979, DELINS338-452A); experiment: Two-electrode voltage clamp, oocytes expressing 5-HT3A-A1; type: cell-based
T1 construct: expressed in transfected cells; host or cells: Xenopus laevis oocytes injected with mRNA
T1 sequence (P23979 with tags, fused parts or gaps isoform P23979-2 DELINS338-452A limits assumed): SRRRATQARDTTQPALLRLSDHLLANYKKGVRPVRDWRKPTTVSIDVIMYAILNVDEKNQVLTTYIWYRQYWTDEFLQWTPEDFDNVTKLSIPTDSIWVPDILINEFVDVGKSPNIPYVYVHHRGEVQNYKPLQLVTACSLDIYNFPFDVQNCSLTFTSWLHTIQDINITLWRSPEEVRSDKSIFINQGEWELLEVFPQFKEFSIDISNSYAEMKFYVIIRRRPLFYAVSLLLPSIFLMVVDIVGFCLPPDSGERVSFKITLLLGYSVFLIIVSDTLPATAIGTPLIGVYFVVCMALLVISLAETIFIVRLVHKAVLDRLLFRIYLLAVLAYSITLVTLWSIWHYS
Source text: (§1) The mouse 5-HT3A cDNA with an N-terminal V5 epitope tag was cloned into the pXOON vector as previously described, and is referred to in this paper as “wild-type” (WT). The starting construct for all of the M3M4 loop replacement constructs used in this work was the 5-HT3A-ΔM3M4 construct formed by splicing the cytoplasmic end of M3 (M3-LVHK/QDLQRP…) to the cytoplasmic end of M4 (…WLRVGY/VLDRLL-M4). The splice was made at the site of the “/” to yield the sequence M3-LVHK/VLDRLL-M4 [34]. This removed 115 residues predicted to form the M3M4 loop.
(§2) The construction of the 5-HT3A-glvM3M4 chimera with the 5-HT3A M3M4 loop replaced by the GLIC heptapeptide M3M4 loop (SQPARAA) was described previously. Point mutations, alanine and Gly-Ser-Ala insertions into the 5-HT3A-ΔM3M4 construct were generated with the Quikchange site directed mutagenesis procedure (Stratagene, La Jolla, CA). The entire coding region of all mutant constructs was verified by DNA sequencing (Albert Einstein College of Medicine DNA Sequencing Facility). The pXOON plasmid was linearized using NheI and capped mRNA prepared with T7 RNA polymerase (mMessage mMachine, Ambion, Austin, TX).
Use of Xenopus laevis in this study was carried out in strict accordance with the recommendations in the Guide for the Care and Use of Laboratory Animals of the National Institutes of Health. The protocol was approved by the Albert Einstein College of Medicine Animal Care and Use Committee (Protocol Number: 20081201). All surgery was performed under tricaine anesthesia, and all efforts were made to minimize suffering. Oocyctes were harvested from Xenopus (Nasco Science, Fort Atkinson, WI) anesthetized with 0.15% tricaine. Oocyctes were defolliculated by incubation in 2 mg ml^−1 Type 1A collagenase (Sigma-Aldrich, St. Louis, MO) in OR2 (85 mM NaCl, 2 mM KCl, 1 mM MgCl2, and 5 mM HEPES; pH adjusted to 7.5 with NaOH) for a 60 or 75 min. Oocytes were washed in OR2 and stored at 16°C in SOS medium: 100 mM NaCl, 2 mM KCl, 1 mM MgCl2, 1.8 mM CaCl2 5 mM HEPES, pH 7.5 with 100 IU ml^−1 penicillin, 100 µg ml^−1 streptomycin, and 250 ng ml^−1 amphotericin B (Invitrogen, Carlsbad, CA) and 5% horse serum (Sigma-Aldrich). 24 hrs following isolation, oocyctes were injected with 23 nl (2.3 ng) of mRNA and were kept in SOS media for 2–5 d at 16°C.
Currents were recorded under two-electrode voltage clamp from oocytes 2–5 d post-injection as described previously. […] The perfusion chamber volume was 200 µl. […]
(§3) Desensitization rates were determined by fitting a single exponential decay function to the current data with Prism 4 software (GraphPad Software). Significant differences compared with wild-type were determined by a one-way ANOVA (p<0.05) using Dunnett's multiple comparison post-hoc test (p<0.05). […]

[2] = molecular target: T2, 5-HT3A-A1 (Mus musculus, UniProt P23979, DELINS338-452A); experiment: Radioactive 5-HT binding to oocytes expressing 5-HT3A-A1; settings: 150 nM [3H]5-HT + 10 µM 5-HT, 5 min, 45 s cold wash
T2 construct: expressed in transfected cells; host or cells: Xenopus laevis oocytes injected with mRNA
Procedure: (§4) Assays were terminated by five washes with ice cold CFFR buffer, followed by solubilization of the oocytes individually with 200 µl 5% SDS. Total wash time was 45 s. […] All data points represent the average of at least fifteen individual oocytes derived from three separate oocyte isolations.
(§5) To determine the extent of non-specific binding, all binding experiments were performed in parallel with diethylpyrocarbonate-(DEPC)-treated-water injected oocytes or uninjected oocytes.

[3] = molecular target: T3, 5-HT3A-A5 (Mus musculus, UniProt P23979); experiment: Radioactive 5-HT binding to oocytes expressing 5-HT3A-A5; settings: 150 nM [3H]5-HT + 10 µM 5-HT, 5 min, 45 s cold wash
T3 construct: expressed in transfected cells; host or cells: Xenopus laevis oocytes injected with mRNA
T3 sequence (P23979 with tags, fused parts or gaps isoform P23979-2 limits assumed): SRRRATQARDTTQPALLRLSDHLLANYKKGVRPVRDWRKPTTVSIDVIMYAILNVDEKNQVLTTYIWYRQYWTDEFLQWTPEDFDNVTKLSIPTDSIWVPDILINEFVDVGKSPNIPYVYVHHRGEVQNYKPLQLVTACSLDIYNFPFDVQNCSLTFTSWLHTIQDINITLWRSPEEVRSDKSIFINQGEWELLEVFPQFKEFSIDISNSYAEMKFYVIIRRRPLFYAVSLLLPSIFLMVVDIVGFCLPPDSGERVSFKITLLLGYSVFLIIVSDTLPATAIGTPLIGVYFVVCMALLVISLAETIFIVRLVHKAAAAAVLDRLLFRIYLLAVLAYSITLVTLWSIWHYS
Procedure: as §4, §5

[4] = molecular target: T4, 5-HT3A-A4 (M3M4 loop replaced by four alanines) (Mus musculus, UniProt P23979); experiment: Two-electrode voltage clamp, oocytes expressing 5-HT3A-A4; type: cell-based
T4 construct: expressed in transfected cells; host or cells: Xenopus laevis oocytes injected with mRNA
T4 sequence (P23979 with tags, fused parts or gaps isoform P23979-2 limits assumed): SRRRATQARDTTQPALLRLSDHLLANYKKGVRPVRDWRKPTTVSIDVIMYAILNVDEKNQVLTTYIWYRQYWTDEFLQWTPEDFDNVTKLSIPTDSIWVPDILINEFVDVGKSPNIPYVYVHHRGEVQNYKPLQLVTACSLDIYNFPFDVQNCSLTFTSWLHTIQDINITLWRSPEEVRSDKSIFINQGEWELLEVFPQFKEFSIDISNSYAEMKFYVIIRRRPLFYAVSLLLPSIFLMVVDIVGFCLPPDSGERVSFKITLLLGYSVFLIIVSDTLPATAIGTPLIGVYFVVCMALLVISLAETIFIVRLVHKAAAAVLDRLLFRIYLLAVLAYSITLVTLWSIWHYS
Source text: as §1, §2
Use of Xenopus laevis in this study was carried out in strict accordance with the recommendations in the Guide for the Care and Use of Laboratory Animals of the National Institutes of Health. The protocol was approved by the Albert Einstein College of Medicine Animal Care and Use Committee (Protocol Number: 20081201). All surgery was performed under tricaine anesthesia, and all efforts were made to minimize suffering. Oocyctes were harvested from Xenopus (Nasco Science, Fort Atkinson, WI) anesthetized with 0.15% tricaine. […]
(§6) Currents were recorded under two-electrode voltage clamp from oocytes 2–5 d post-injection as described previously. […]
as §3

[5] = molecular target: T5, 5-HT3A ESQPA-M3M4 loop construct (Mus musculus, UniProt P23979); experiment: Two-electrode voltage clamp, oocytes expressing ESQPA-M3M4 loop construct; type: cell-based; settings: up to 50 µM 5-HT, Xenopus oocytes
T5 construct: expressed in transfected cells; host or cells: Xenopus laevis oocytes injected with mRNA
T5 sequence (P23979 with tags, fused parts or gaps isoform P23979-2 limits assumed): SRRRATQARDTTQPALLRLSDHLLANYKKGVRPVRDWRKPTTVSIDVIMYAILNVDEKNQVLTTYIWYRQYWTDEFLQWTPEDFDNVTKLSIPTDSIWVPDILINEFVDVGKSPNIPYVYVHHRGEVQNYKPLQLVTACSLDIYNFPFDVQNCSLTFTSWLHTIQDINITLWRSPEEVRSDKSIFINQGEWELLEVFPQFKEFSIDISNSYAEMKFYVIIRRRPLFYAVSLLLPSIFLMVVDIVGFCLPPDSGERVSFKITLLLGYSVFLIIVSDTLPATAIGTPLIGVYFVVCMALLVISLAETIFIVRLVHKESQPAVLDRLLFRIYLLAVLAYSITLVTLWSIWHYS
Source text: as §1
(§7) The construction of the 5-HT3A-glvM3M4 chimera with the 5-HT3A M3M4 loop replaced by the GLIC heptapeptide M3M4 loop (SQPARAA) was described previously. Point mutations, alanine and Gly-Ser-Ala insertions into the 5-HT3A-ΔM3M4 construct were generated with the Quikchange site directed mutagenesis procedure (Stratagene, La Jolla, CA). […]
as §6, §3

[6] = molecular target: T6, 5-HT3A M3M4 loop SQPAEAA construct (Mus musculus, UniProt P23979); experiment: Two-electrode voltage clamp, oocytes expressing SQPAEAA loop construct; type: cell-based; settings: 10 µM 5-HT, Xenopus oocytes
T6 construct: expressed in transfected cells; host or cells: Xenopus laevis oocytes injected with mRNA
T6 sequence (P23979 with tags, fused parts or gaps): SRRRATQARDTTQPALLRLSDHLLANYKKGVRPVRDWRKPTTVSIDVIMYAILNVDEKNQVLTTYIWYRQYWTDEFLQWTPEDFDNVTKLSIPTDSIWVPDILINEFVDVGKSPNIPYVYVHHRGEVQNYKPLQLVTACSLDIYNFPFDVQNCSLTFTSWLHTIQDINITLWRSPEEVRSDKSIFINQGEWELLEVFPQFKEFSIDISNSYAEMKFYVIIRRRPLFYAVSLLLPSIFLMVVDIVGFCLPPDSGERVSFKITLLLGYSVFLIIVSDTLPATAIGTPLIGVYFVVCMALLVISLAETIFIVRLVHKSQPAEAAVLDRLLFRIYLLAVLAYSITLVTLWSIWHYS
Source text: as §1, §7, §6, §3

NCCc1c[nH]c2ccc(O)cc12 [5-HT, 5-hydroxytryptamine]
10–90% Activation rise time ([1]; 10 µM 5-HT): 1055 ± 17 ms | Desensitization time constant τ ([1]; initial 10 µM 5-HT application, may be limited by solution exchange): 7 ± 1 s | Imax (peak current) ([1]; initial application of 10 µM 5-HT, Xenopus oocytes, -60 mV): 1800±380 nA | Current induced by subsequent 5-HT application ([1]; subsequent 5-HT application 360 s later): 159±5 nA | Radiolabeled 5-HT binding to oocytes [2]: undetectable | Radiolabeled 5-HT bound per oocyte [3]: 0.40±0.03 pmol per oocyte | 10–90% Activation rise time ([4]; 10 µM 5-HT): 487 ± 25 ms | Imax (peak current) ([4]; 10 µM 5-HT, Xenopus oocytes, -60 mV): 7100±400 nA | Desensitization time constant τ ([4]; prolonged 10 µM 5-HT): 56 ± 9 s | 5-HT induced current [5]: no currents were observed | 5-HT induced current [6]: large currents
